According to patent publication US12419870B2, “Compositions and methods for immune cell modulation in adoptive immunotherapies” (Fate Therapeutics, Inc., priority 2016, dated 2025):
Structures can show the parent of a compound that is named as a salt.

How the values were obtained:
[1] = system: viable CD8+ population; test: In vitro T cell culture compound screen, flow cytometry for cells co-expressing CCR7 and CD62L in CD8+ cells; assay type: cell-based, human; conditions: 10 μM, about 6 days; for CD8 Hit: anti-CD3/anti-CD28 beads, hit criteria: Z-score > +2 for percent or relative absolute number of CCR7+CD62L+ cells; for number or ratio of cells co-expressing CCR7 and CD62L: viable CD8+ population
Source text: (§1) In Vitro T Cell Culture. Fresh leukopaks (AllCells, Alameda, CA) were obtained from healthy donors, from which T cells were negatively selected using the EasySep Human T Cell Enrichment Kit (Stem Cell Technologies, Vancouver, Canada). The freshly isolated T cells were aliquoted and cryopreserved. On the day the screens were initiated, T cells were thawed and washed into X-Vivo 15 with 5% human AB serum, IL-2, pen/strep, and additional supplements. Cells were dispensed into flat-bottom 384-well plates at 5×10^5 cells/ml with anti-CD3/Anti-CD28 dynabeads (ThermoFisher, Waltham, MA) at a 3:1 bead-to-cell ratio. Individual compounds were added at a final concentration of 10 μM to each well from column 3 to column 22 of each plate. Positive and negative controls were added to additional wells. Cells were incubated for about 6 days at 37 degrees with 5% CO2.
(§2) Flow Cytometry. On Day 6 of culture, cells were stained with a fixable viability marker and fluorophore-conjugated antibodies: CD3, CD4, CD8, CD45RA, CD45RO, CD62L, CCR7, CD27, and CD122 (BD Biosciences, San Jose, CA; and BioLegend, San Diego, CA). Fluorescent absolute counting beads (Spherotech, Lake Forest, IL) were added just prior to acquisition. Data acquisition was performed on a BD Fortessa X-20 (BD Biosciences) and data were analyzed using Treestar software (FlowJo, Ashland, OR) and Spotfire (Tibco, Boston, MA).
(§3) These cells are characterized by expression of CCR7 and CD62L. Therefore, cells co-expressing both of these identifying markers were evaluated. Within the viable CD4+ population and viable CD8+ population, the percent of cells co-expressing CCR7 and CD62L was determined. The expression of either CD62L or CCR7 on T cells, as indicative of the desired T cell subsets, have been described as having favorable functional characteristics for CAR-T cell therapy, and potentially other adoptive T cell therapies.
(§4) The number of events in each of these gates relative to the number of absolute counting beads in each sample was calculated, defining a relative measure of the absolute number of naïve, stem cell memory, or central memory T cells within the CD4+ and/or CD8+ populations. A z-Score relative to the screened compound samples within each 384-well plate was calculated for each of these four values: 1) percent CCR7+CD62L+ in CD4+, 2) percent CCR7+CD62L+ in CD8+, 3) absolute relative number of CCR7+CD62L+ in CD4+, and 4) absolute relative number of CCR7+CD62L+ in CD8+(FIGS. 1A and 1i). Z-scores were also calculated for the percent viability of all cells within each sample and the relative absolute number of cells within each sample. A “Z-Score” is a statistical measurement of a score's relationship to the mean in a group of scores. A Z-score of 0 means the score is the same as the mean. A Z-score can also be positive or negative, indicating whether it is above or below the mean and by how many standard deviations.

[2] = system: viable CD4+ population; test: In vitro T cell culture compound screen, flow cytometry for cells co-expressing CCR7 and CD62L in CD4+ cells; assay type: cell-based, human; conditions: 10 μM, about 6 days; for CD4 Hit: anti-CD3/anti-CD28 beads, hit criteria: Z-score > +2 for percent or relative absolute number of CCR7+CD62L+ cells; for number or ratio of cells co-expressing CCR7 and CD62L: viable CD4+ population
Source text: as §1, §2, §3, §4

[3] = system: Nalm-6-luc; test: In vivo tumor clearance by compound-treated CAR-T cells in tumor-bearing NSG mice; conditions: 0.2×10^6 CD4 and CD8 CAR-T cells 1:1, retroorbital, one week after tumor injection
Procedure: CAR-T cells were generated from CD4+ and CD8+ T cells that were separately activated and expanded in vitro. The cells were transduced with the CAR-2 construct (FIG. 2) one day after activation and then replated into 24-well GREX plates with or without the compounds. Half the media was replaced every two days thereafter until harvest one week post-activation. One week after tumor injection, the NSG mice were treated with 0.2×10^6 CD4 and CD8 CAR-T cells mixed at a 1:1 ratio via retroorbital injection. The mice were imaged periodically to determine tumor burden.

[4] = system: CD8 T cells; test: CD27 cell surface expression on CAR-transduced CD8 T cells by flow cytometry; assay type: cell-based, human; conditions: 20 nM rapa, 10 μM dmPGE2 or both; day 8; two donors; relative to vehicle (DMSO)
Procedure: (§5) In order to perform these studies, isolated CD8 T cells were activated in bulk on day 0 using CTS (Cell Therapy Systems) Dynabeads™ CD3/CD28 (Thermo Fisher Scientific, Waltham, MA) in T cell media supplemented with IL-2. On day 1, cells were transduced with the CAR Construct 1 shown in FIG. 2 and cell density was adjusted to 0.5×10^6/ml and 10^6 cells were seeded into 12 well plates in the presence of vehicle, 20 nM rapa, 10 μM dmPGE2 or both compounds at the same concentrations. On day 4, cells were transferred into 6-well plates and 2 ml of media was added to each well. On day 6 another 2 ml of media was added to each well. On day 8, cells were analyzed on a flow cytometer for cell surface expression of CD27.

[5] = system: CD8+ T-cells; test: Genome-wide expression on Human Transcriptome Array microarray chips; conditions: 20 nM rapa, 10 μM dmPGE2 or both
Procedure: as §5

Compound	CD8 Hit [1]	number or ratio of cells co-expressing CCR7 and CD62L [1]	CD4 Hit [2]	further results
2-Naphthacenecarboxamide, 7-chloro-4-(dimethylamino)-1,4,4a,5,5a,6,11,12a-octahy	CD8	increased	–	–
CCC(CO)Nc1nc(NCc2ccccc2)c2ncn(C(C)C)c2n1 (stereo in doubt) [Roscovitine, (S)-Isomer]	–	increased	CD4	–
CCCc1c(-c2ccc(O)cc2)nn(-c2ccc(O)cc2)c1-c1ccc(O)cc1 [1,3,5-tris(4-hydroxyphenyl)-4-propyl-1H-pyrazole]	–	increased	CD4	–
N.S=C(S)N1CCCC1 [1-Pyrrolidinecarbodithioic acid, ammonium salt]	–	increased	CD4	–
Nc1ncn([C@@H]2O[C@H](CO)[C@@H](O)[C@H]2O)c(=O)n1 [5-Azacytidine]	CD8	increased	CD4	number or ratio of cells co-expressing CCR7 and CD62L [2]: increased
Sc1ncnc2nc[nH]c12 [6-Mercaptopurine]	CD8	increased	CD4	number or ratio of cells co-expressing CCR7 and CD62L [2]: increased
Oc1c(Cl)cc(Cl)c2cccnc12 [8-Quinolinol,5,7-dichloro-]	CD8	increased	CD4	number or ratio of cells co-expressing CCR7 and CD62L [2]: increased
Oc1c(I)cc(Cl)c2cccnc12 [8-Quinolinol,5-chloro-7-iodo-]	CD8	increased	CD4	number or ratio of cells co-expressing CCR7 and CD62L [2]: increased
CC[n+]1c(/C=C/C=C2/N(C)c3ccccc3C2(C)C)sc2ccccc21.[I-] [AC-93253 iodide]	CD8	increased	CD4	number or ratio of cells co-expressing CCR7 and CD62L [2]: increased
COc1ccc(-c2cc3nccn3c(Nc3ncccc3C(N)=O)n2)cc1OC [BAY 61-3606]	–	increased	CD4	–
COc1cc2nc(N3CCCN(C)CC3)nc(NC3CCN(Cc4ccccc4)CC3)c2cc1OC [BIX01294]	–	increased	CD4	–
CC[N+](C)(C)c1cccc(O)c1 [Edrophonium chloride]	CD8	increased	–	–
C[C@]12CC[C@@H]3c4ccc(O)cc4C[C@@H](CCCCCCCCC[S+]([O-])CCCC(F)(F)C(F)(F)F)[C@H]3[C@@H]1CC[C@@H]2O (stereo partly shown) [Fulvestrant]	CD8	increased	–	–
CC(C)C1CCC2(CO2)C2C(=O)OCC(C(=O)O)=CC12 (stereo not shown) [Heptelidic acid]	CD8	increased	CD4	number or ratio of cells co-expressing CCR7 and CD62L [2]: increased
O=C(N/N=C/c1ccc([N+](=O)[O-])o1)c1ccc(O)cc1 [Nifuroxazide]	CD8	increased	–	–
C=CCc1cccc(/C=N/NC(=O)CN2CCN(Cc3ccccc3)CC2)c1O [PAC-1]	–	increased	CD4	–
C=CC1=C(C)c2cc3[nH]c(cc4nc(cc5[nH]c(cc1n2)c(C)c5CCC(=O)O)C(CCC(=O)O)=C4C)c(C)c3C=C [Protoporphyrin IX disodium]	–	increased	CD4	–
CN(C)c1ccc(C=C2C(=O)Nc3ccccc32)cc1 [SU 4312]	CD8	increased	–	–
CN[C@H]1CC[C@@H](c2ccc(Cl)c(Cl)c2)c2ccccc21 [Sertraline]	CD8	–	CD4	–
Nc1cccc(-c2cc3c(Oc4cccc(O)c4)ncnc3[nH]2)c1 [TWS119]	–	–	–	tumor clearance / tumor control by treated CAR-T cells [3]: minimal tumor control
CCCc1nc2c(C)cc(-c3nc4ccccc4n3C)cc2n1Cc1ccc(-c2ccccc2C(=O)O)cc1 [Telmisartan]	–	increased	CD4	–
CC(C)(C)c1ccc(C(O)CCCN2CCC(C(O)(c3ccccc3)c3ccccc3)CC2)cc1 (stereo not shown) [Terfenadine]	–	increased	CD4	–
C/C=C(/C)C(=O)O[C@H]1C(C)=C2[C@H]([C@@H]1OC(=O)CCCCCCC)[C@@](C)(OC(C)=O)C[C@H](OC(=O)CCC)[C@@]1(O)[C@H]2OC(=O)[C@@]1(C)O [Thapsigargin]	CD8	increased	–	–
O=C(O)Cc1cc(I)c(Oc2ccc(O)c(I)c2)c(I)c1 [Tiratricol]	CD8	increased	CD4	number or ratio of cells co-expressing CCR7 and CD62L [2]: increased
NC1CCN(c2nc3c(cc2F)c(=O)c(C(=O)O)cn3-c2ccc(F)cc2F)C1 (stereo not shown) [Tosufloxacin hydrochloride]	–	increased	CD4	–
N#CC(=C(/N)Sc1ccccc1N)/C(C#N)=C(\N)Sc1ccccc1N [U0126]	–	increased	CD4	tumor clearance / tumor control by treated CAR-T cells [3]: minimal tumor control
CO[C@H]1C[C@@H]2CC[C@@H](C)[C@@](O)(O2)C(=O)C(=O)N2CCCC[C@H]2C(=O)O[C@H]([C@H](C)C[C@@H]2CC[C@@H](O)[C@H](OC)C2)CC(=O)[C@H](C)/C=C(\C)[C@@H](O)[C@@H](OC)C(=O)[C@H](C)C[C@H](C)/C=C/C=C/C=C/1C [rapamycin]	–	–	–	CD27 expression, relative MFI (vehicle defined as 1) [4]: approximately 2 fold; total number of genes down-regulated more than 2 fold compared to vehicle control [5]: 284; total number of genes up-regulated more than 2 fold compared to vehicle control [5]: 215
Diethylenetriaminepentaacetic acid, penta sodium	CD8	increased	CD4	number or ratio of cells co-expressing CCR7 and CD62L [2]: increased
